According to US10815264B2, “Nucleotides for the treatment of cancer” (IDENIX PHARMACEUTICALS LLC, priority 2015, dated 2020):
Like-named read-outs stand apart in the source and are kept apart here.

Key:
[1] = test system: live leukemic cells of AML patient samples (bone marrow or peripheral blood); assay: Ex-vivo effect on AML patient samples, depletion of live leukemic cells by flow cytometry; format: cell-based, human; conditions: plates incubated for 48 hours
Method: Patient samples were obtained from a non-interventional and prospective study. The study included samples from adult patients over 18 years of age who were diagnosed with Acute Myeloid Leukemia (AML).
In one embodiment, the method of data acquisition was performed as follows: on day 1 bone marrow (BM) or peripheral blood (PB) patient sample was received. A small part was separated from the rest of the sample for validation, while the majority of the sample was diluted with culture media and plated into 96-well plates previously prepared with the desired compounds and compound combinations, e.g., a compound or compound combination described herein. The number of live leukemic cells seeded in each well was fixed between 8000 and 32000, depending on the percentage of leukemic cells for each sample. […] Antibodies were added to identify leukemic cells using a gating strategy based on FSC/SSC and expression or lack of expression of different surface markers. The monoclonal antibodies selection was performed to optimize the identification of leukemic cell in each sample.
In one embodiment, non-limiting examples of biomarkers such as the biomarkers CD34, CD45, CD117, and HLADR known as “backbone markers” for AML (van Dongen, J. J. and A. Orfao, EuroFlow: Resetting leukemia and lymphoma immunophenotyping. Basis for companion diagnostics and personalized medicine, Leukemia, 2012, 26, 1899-907) were included in the combination.
In one embodiment, antibody combinations such as CD117/CD45, CD34/CD45, and HLADR/CD45 were used. Live leukemic cells were identified by their light scatter properties (FSC^int/hi/SSC^int) in the absence of Annexin-V-FITC staining. FSC/SSC selection was performed to exclude debris. The average percentage of cell viability upon receipt of the sample was 80% and samples were only processed if the viability was greater than 50%.
In one embodiment, sample validation was performed as follows: BM and PB samples were extracted under sterile conditions and received in the laboratory within 24 hours of extraction. Initial analysis evaluated the number of pathological cells and their viability. Different volumes of sample (1 μL, 3 μL, 5 μL and 7 μL) were aliquoted in duplicate into a 96-well plate. To lyse red blood cells, 180 μL of ammonium chloride lysis solution was added to each well (2 g KHCO3, 16.58 g NH4Cl, 0.074 g Na2EDTA.2H2O, H2O to 1 L). Following a 10 min incubation period at 4° C., plate was centrifuged for 5 min at 1200 rpm and the supernatant removed. The lysis step was performed twice. To analyze, 20 μL of a combination of Annexin V-FITC (Immunostep, Salamanca, Spain), binding buffer (BB, 2.4 g HEPES, 8.19 g NaCl, 0.37 g Cl2Ca, H2O to 1 L), and the following monoclonal antibodies (mAb) were added to each well: CD117 (clone 104D2)-PE (Becton Dickinson, San Jose, Calif., US), CD34 (clone 581)-PerCP (BioLegend, San Diego, Calif., US), HLADR (clone L243)-PB (BioLegend) and CD45 (HI30)-PO (Life Technologies, Carlsbad, Calif., US) (van Dongen, J. J., et al., EuroFlow antibody panels for standardized n-dimensional flow cytometric immunophenotyping of normal, reactive and malignant leukocytes, Leukemia, 2012, 26, 1908-75). After 15 min of incubation at room temperature in the dark, a wash step was performed using binding buffer solution. The pellet was resuspended in 30 μL BB for analysis in Vivia's ExviTech© platform. Cell count and viability upon arrival were computed and the optimal volume of sample to use per well was determined.
In one embodiment, the assay was performed according to following method: the whole sample was diluted with RPMI 1640, supplemented with 20% (v/v) FBS (Thermo Scientific, Waltham, Mass., US), 2% HEPES, 1% antibiotic (Zell Shield, Labclinics, Barcelona, Spain) and 1% L-glutamine 200 mM (Lonza, Hopkinton, Mass., US) to a final volume of 60 μL per well. […]

PANC-1 = assay: In vitro inhibition, CellTiter-Glo (CTG) assay, 72 hr exposure; format: cell-based; conditions: Homo sapiens, PANC-1, 72 hr
Method: (§1) Cells were grown in RPMI-1640 supplemented with L-Glutamine and 10% FBS of the following cell lines:
(§2) CCRF-CEM; CCRF-CEM-cytarabine resistant; HL-60; K562; CFPAC-1; MiaPACA-2; BxPC-3; PANC-1; HepG2; MDA-MB-231; HCT-116; A498; and NCI-H69
(§3) 18, 96 well plates of each cell line were seeded with the optimized number of cells per well in a total volume of 50 μL per well. The plates were left overnight. Plate wells were seeded with 100 μL media for media control. The following day, cells were exposed to test compounds as described below. At the same time as drug exposure, a CTG assay was conducted on the 18th plate for the 0 hr count.
(§4) The compounds were added to cells and medium already on the plate to give desired final concentrations. 50 μL media were added to cell control wells, and 50 μL of mix added to vehicle control wells. 10 μM Doxorubicin was added to appropriate wells. Cells exposed to test compound were incubated at 37° C. for 72 hr followed by a CTG assay.
(§5) At the end of the 72 hr exposure period, plates were removed for a CellTiter-Glo (CTG) assay from a 37° C., 5% CO2 incubator and placed on the bench at room temperature for 30 mins. 100 μL of CellTiter-Glo reagent was added and mixed for 2 mins, followed by a further 10 min incubation at room temperature. Luminescence was recorded using Synergy 4.0.

HCT-116 = assay: as above; format: cell-based
Method: as §1, §2, §3, §4, §5

MiaPACA-2 = assay: as above; format: cell-based
Method: as §1, §2, §3, §4, §5

CCRF-CEM = assay: as above; format: cell-based
Method: as §1, §2, §3, §4, §5

NCI-H69 = assay: as above; format: cell-based; conditions: Homo sapiens
Method: as §1, §2, §3, §4, §5

BxPC-3 = assay: as above; format: cell-based
Method: as §1, §2, §3, §4, §5

A498 = assay: as above; format: cell-based; conditions: Homo sapiens
Method: as §1, §2, §3, §4, §5

HL-60 = assay: as above; format: cell-based
Method: as §1, §2, §3, §4, §5

HepG2 = assay: as above; format: cell-based
Method: as §1, §2, §3, §4, §5

CFPAC-1 = assay: as above; format: cell-based
Method: as §1, §2, §3, §4, §5

MDA-MB-231 = assay: as above; format: cell-based; conditions: Homo sapiens, MDA-MB-231, 72 hr
Method: as §1, §2, §3, §4, §5

[2] = test system: CCRF-CEM-cytarabine resistant; assay: as above; format: cell-based
Method: as §1, §2, §3, §4, §5

K562 = assay: as above; format: cell-based; conditions: K562, 72 hr
Method: as §1, §2, §3, §4, §5

[3] = Homo sapiens, MIA PaCa-2, MiaPACA-2, 72 hr

CC(C)OC(=O)[C@H](C)NP(=O)(OC[C@H]1S[C@@H](n2ccc(N)nc2=O)[C@@H](O)[C@@H]1O)Oc1ccccc1 (single isomer, unassigned) [drawing 48]
EC50 [1]: 10 to 20 µM | Emax (%) [1]: A (A=0-10%)

CCOC(=O)COP(=O)(N[C@@H](CC(C)C)C(=O)OCC)OC[C@H]1S[C@@H](n2ccc(N)nc2=O)[C@@H](O)[C@@H]1O (single isomer, unassigned) [drawing 51]
EC50 ([1]; Homo sapiens, 48 h): 10 to 20 µM | Emax ([1]; Homo sapiens, 48 h): 0 to 10%

COC(=O)COP(=O)(N[C@@H](CC(C)C)C(=O)OC)OC[C@H]1S[C@@H](n2ccc(N)nc2=O)[C@@H](O)[C@@H]1O (single isomer, unassigned) [Compound 104b (diastereoisomer 1)]
IC50 (PANC-1): 10 to 100 µM | IC50 (HCT-116; Homo sapiens, HCT-116, 72 h): 10 to 100 µM | IC50 (MiaPACA-2; [3]): 10 to 100 µM | IC50 (CCRF-CEM; Homo sapiens, 72 h): < 1 µM | IC50 (NCI-H69; NCI-H69, 72 h): 10 to 100 µM | IC50 (BxPC-3; Homo sapiens, BXPC-3, 72 h): 10 to 100 µM | IC50 (A498; A498, 72 h): 10 to 100 µM | IC50 (HL-60; Homo sapiens, HL-60, 72 h): 1 to 10 µM | IC50 (HepG2; HepG2, 72 hr): 1 to 10 µM | IC50 (CFPAC-1; Homo sapiens, CFPAC-1, 72 h): 10 to 100 µM | IC50 (MDA-MB-231): 10 to 100 µM | IC50 [2]: 10 to 100 µM | IC50 (K562; Homo sapiens): 10 to 100 µM

CC(C)(C)SSCCOP(=O)(NCc1ccccc1)OC[C@H]1S[C@@H](n2ccc(N)nc2=O)[C@@H](O)[C@@H]1O (single isomer, unassigned) [drawing 58]
EC50 [1]: ≥ 20 µM | Emax (%) [1]: C (C>20%)

CC(C)OC(=O)[C@H](C)NP(=O)(OC[C@H]1S[C@@H](n2ccc(N)nc2=O)[C@@H](O)[C@@H]1O)Oc1ccccc1 (single isomer, unassigned) [Compound 101b (diastereoisomer 1)]
IC50 (PANC-1): 10 to 100 µM | IC50 (HCT-116; HCT-116, 72 hr): 10 to 100 µM | IC50 (MiaPACA-2; MiaPACA-2, 72 hr): 10 to 100 µM | IC50 (CCRF-CEM): < 1 µM | IC50 (NCI-H69; NCI-H69, 72 hr): 10 to 100 µM | IC50 (BxPC-3; BxPC-3, 72 hr): 10 to 100 µM | IC50 (A498; A498, 72 hr): 10 to 100 µM | IC50 (HL-60; HL-60, 72 hr): 1 to 10 µM | IC50 (HepG2; HepG2, 72 hr): 10 to 100 µM | IC50 (CFPAC-1; CFPAC-1, 72 hr): 10 to 100 µM | IC50 (MDA-MB-231): 10 to 100 µM | IC50 [2]: 10 to 100 µM | IC50 (K562): 10 to 100 µM

Nc1ccn([C@@H]2S[C@H](COP(=O)(NCc3ccccc3)OCc3ccc([N+](=O)[O-])o3)[C@@H](O)[C@@H]2O)c(=O)n1 (single isomer, unassigned) [drawing 53]
EC50 [1]: 1 to 10 µM | Emax (%) [1]: A (A=0-10%)

Cn1c(COP(=O)(NCc2ccccc2)O[C@H]2[C@H](O)[C@H](n3ccc(N)nc3=O)S[C@@H]2CO)cnc1[N+](=O)[O-] (mixture of isomers) [Compound 106b (mixture of diastereoisomers), 4-amino-1-[(2R,3S,4S,5R)-4-[(benzylamino)-[(3-methyl-2-nitro-imidazol-4-yl)methoxy]phosphoryl]oxy-3-hydroxy-5-(hydroxymethyl)tetrahydrothiophen-2-yl]pyrimidin-2-one]
IC50 (PANC-1): 10 to 100 µM | IC50 (HCT-116; Homo sapiens, HCT-116, 72 h): 10 to 100 µM | IC50 (MiaPACA-2; [3]): 10 to 100 µM | IC50 (CCRF-CEM; Homo sapiens, 72 h): 10 to 100 µM | IC50 (NCI-H69; NCI-H69, 72 h): 10 to 100 µM | IC50 (BxPC-3; Homo sapiens, BXPC-3, 72 h): 10 to 100 µM | IC50 (A498; A498, 72 h): 10 to 100 µM | IC50 (HL-60; Homo sapiens, HL-60, 72 h): 10 to 100 µM | IC50 (HepG2; Homo sapiens, HepG2, 72 h): 10 to 100 µM | IC50 (CFPAC-1; Homo sapiens, CFPAC-1, 72 h): 10 to 100 µM | IC50 (MDA-MB-231): 10 to 100 µM | IC50 [2]: 10 to 100 µM | IC50 (K562; Homo sapiens): 10 to 100 µM

COC(=O)COP(=O)(N[C@@H](CC(C)C)C(=O)OC)OC[C@H]1S[C@@H](n2ccc(N)nc2=O)[C@@H](O)[C@@H]1O (single isomer, unassigned) [drawing 54]
EC50 ([1]; Homo sapiens, 48 h): 1 to 10 µM | Emax ([1]; Homo sapiens, 48 h): 0 to 10%

Nc1ccn([C@@H]2S[C@H](COP(=O)(NCc3ccccc3)OCc3ccc([N+](=O)[O-])o3)[C@@H](O)[C@@H]2O)c(=O)n1 (single isomer, unassigned) [drawing 52]
Emax ([1]; Homo sapiens, 48 h): 0 to 10% | EC50 [1]: 10 to 20 µM

CC(C)(C)SSCCOP(=O)(NCc1ccccc1)OC[C@H]1S[C@@H](n2ccc(N)nc2=O)[C@@H](O)[C@@H]1O (single isomer, unassigned) [drawing 57]
EC50 ([1]; Homo sapiens, 48 h): ≥ 20 µM | Emax ([1]; Homo sapiens, 48 h): 10 to 20%

CC(C)OC(=O)[C@H](C)NP(=O)(OC[C@H]1S[C@@H](n2ccc(N)nc2=O)[C@@H](O)[C@@H]1O)Oc1ccccc1 (single isomer, unassigned) [drawing 47]
EC50 ([1]; Homo sapiens, 48 h): ≥ 20 µM | Emax ([1]; Homo sapiens): 0 to 10%

COC(=O)COP(=O)(N[C@@H](CC(C)C)C(=O)OC)OC[C@H]1S[C@@H](n2ccc(N)nc2=O)[C@@H](O)[C@@H]1O (single isomer, unassigned) [drawing 55]
EC50 [1]: 1 to 10 µM

Nc1ccn([C@@H]2S[C@H](COP(=O)(O)NCc3ccccc3)[C@@H](O)[C@@H]2O)c(=O)n1 [drawing 49]
EC50 ([1]; Homo sapiens, 48 h): 1 to 10 µM | Emax ([1]; Homo sapiens, 48 h): 10 to 20%

CCOC(=O)COP(=O)(N[C@@H](CC(C)C)C(=O)OCC)OC[C@H]1S[C@@H](n2ccc(N)nc2=O)[C@@H](O)[C@@H]1O (single isomer, unassigned) [drawing 50]
EC50 [1]: 10 to 20 µM

CC(=O)OC[C@H](C)NP1(=O)OC[C@H]2S[C@@H](n3ccc(N)nc3=O)[C@@H](O)C2O1 (stereo partly shown)
EC50 ([1]; Homo sapiens, 48 h): ≥ 20 µM | Emax ([1]; Homo sapiens, 48 h): > 20%
